pEC50: −log10 of the molar value. Activity calls are given as the source filed them. The rule behind the calls is not given here.
Legend:
[1] = tested on: unidentified influenza virus; assay: Antiviral activity against Influenza virus Ao/WNS infected in monkey LLC-MK2 cells after 5 days by pulp disk diffusion assay; assay type: functional, organism-based
Mus musculus [2] = assay: Toxicity in BDF1 mouse allografted with mouse L1210 cells assessed as survival at 1000 mg/kg, ip administered 24 hrs post-implantation after 30 days; assay type: organism-based; parameters: dose 1000 mg/kg, route intraperitoneal; details: in vivo, 720 h
L1210 [3] = assay: Antitumor activity against mouse L1210 cells allografted in po dosed BDF1 mouse administered 24 hrs post-implantation; assay type: functional, organism-based
Mus musculus [4] = assay: Toxicity in BDF1 mouse allografted with mouse L1210 cells assessed as reduction in average life span at 1000 mg/kg, ip administered 24 hrs post-implantation measured up to 30 days relative to control; assay type: organism-based; parameters: dose 1000 mg/kg, route intraperitoneal; scale not given: the % may be the effect or the level left; details: in vivo
Vaccinia virus = assay: Antiviral activity against Vaccinia virus IHD infected in African green monkey BGM cells after 6 days by plaque reduction assay; assay type: functional; details: Orthopoxvirus vaccinia, 144 h, read-out: ED50 (the source's name)
Mus musculus [5] = assay: Toxicity in BDF1 mouse allografted with mouse L1210 cells assessed as reduction in average life span at 200 mg/kg, ip administered 24 hrs post-implantation measured up to 30 days relative to control; assay type: organism-based; parameters: dose 200 mg/kg, route intraperitoneal; scale not given: the % may be the effect or the level left; details: in vivo
Herpesviridae sp. = assay: Antiviral activity against Herpes simplex virus HF infected in African green monkey BGM cells after 6 days by plaque reduction assay; assay type: functional; details: 144 h, read-out: ED50 (the source's name)
Mus musculus [6] = assay: Toxicity in BDF1 mouse allografted with mouse L1210 cells assessed as survival at 200 mg/kg, ip administered 24 hrs post-implantation after 30 days; assay type: organism-based; parameters: dose 200 mg/kg, route intraperitoneal; details: in vivo, 720 h
L1210 [7] = assay: Antitumor activity against mouse L1210 cells allografted in BDF1 mouse assessed as increase in life span at 50 mg/kg, ip administered 24 hrs post-implantation measured up to 30 days relative to control; assay type: functional; details: route intraperitoneal
Mus musculus [8] = assay: Toxicity in BDF1 mouse allografted with mouse L1210 cells assessed as survival at 500 mg/kg, ip administered 24 hrs post-implantation after 30 days; assay type: organism-based; parameters: dose 500 mg/kg, route intraperitoneal; details: in vivo, 720 h
Mus musculus [9] = assay: Toxicity in BDF1 mouse allografted with mouse L1210 cells assessed as reduction in average life span at 500 mg/kg, ip administered 24 hrs post-implantation measured up to 30 days relative to control; assay type: organism-based; parameters: dose 500 mg/kg, route intraperitoneal; scale not given: the % may be the effect or the level left; details: in vivo
L1210 [10] = assay: Antitumor activity against mouse L1210 cells allografted in BDF1 mouse assessed as survival at 50 mg/kg, ip administered 24 hrs post-implantation after 30 days; assay type: functional, organism-based; parameters: dose 50 mg/kg
Measles morbillivirus = assay: Antiviral activity against Measles virus infected in African green monkey BGM cells after 5 days by pulp disk diffusion assay; assay type: functional, organism-based
HeLa = assay: Cytotoxicity against human HeLa cells after 48 hrs by Coulter counting analysis; assay type: functional; details: read-out: ED50 (the source's name)
BGM = assay: Antiviral activity against Poliovirus type 1 Mahoney infected in African green monkey BGM cells after 5 days by pulp disk diffusion assay; assay type: functional, cell-based; details: Human poliovirus 1 Mahoney
L1210 [11] = assay: Antitumor activity against mouse L1210 cells allografted in BDF1 mouse assessed as survival at 200 mg/kg, ip administered 24 hrs post-implantation after 30 days; assay type: functional, organism-based; parameters: dose 200 mg/kg
L1210 [12] = assay: Antitumor activity against mouse L1210 cells allografted in BDF1 mouse assessed as increase in life span at 200 mg/kg, ip administered 24 hrs post-implantation measured up to 30 days relative to control; assay type: functional; details: route intraperitoneal
Mus musculus [13] = assay: Toxicity in BDF1 mouse allografted with mouse L1210 cells at 50 mg/kg, ip administered 24 hrs post-implantation measured up to 30 days; assay type: organism-based; parameters: dose 50 mg/kg, route intraperitoneal; details: in vivo
L1210 [14] = assay: Antitumor activity against mouse L1210 cells allografted in BDF1 mouse assessed as increase in life span at 500 mg/kg, ip administered 24 hrs post-implantation measured up to 30 days relative to control; assay type: functional; details: route intraperitoneal
L1210 [15] = assay: Antitumor activity against mouse L1210 cells allografted in BDF1 mouse assessed as increase in life span at 1000 mg/kg, ip administered 24 hrs post-implantation measured up to 30 days relative to control; assay type: functional; details: route intraperitoneal
L1210 [16] = assay: Antitumor activity against mouse L1210 cells allografted in BDF1 mouse assessed as survival at 500 mg/kg, ip administered 24 hrs post-implantation after 30 days; assay type: functional, organism-based; parameters: dose 500 mg/kg
Mus musculus [17] = assay: Toxicity in BDF1 mouse allografted with mouse L1210 cells at 50 to 1000 mg/kg, ip administered 24 hrs post-implantation measured up to 30 days; assay type: organism-based; parameters: dose 50-1000 mg/kg, route intraperitoneal; details: in vivo
L1210 [18] = assay: Antitumor activity against mouse L1210 cells allografted in BDF1 mouse assessed as survival at 1000 mg/kg, ip administered 24 hrs post-implantation after 30 days; assay type: functional, organism-based; parameters: dose 1000 mg/kg

| SMILES | Activity [1] | Activity (Mus musculus [2]) | Activity (L1210 [3]) | Activity (Mus musculus [4]) [%] | pEC50 (Vaccinia virus) | Activity (Mus musculus [5]) [%] | pEC50 (Herpesviridae sp.) | Activity (Mus musculus [6]) | ILS at 50 mg/kg (L1210 [7]) [%] | Activity (Mus musculus [8]) | Activity (Mus musculus [9]) [%] | Activity (L1210 [10]) | Activity (Measles morbillivirus) | EC50 (HeLa) [mg/L] | Activity (BGM) | ILS at 200 mg/kg (L1210 [12]) [%] | Activity (Mus musculus [13]) | further results |
| --- | --- | --- | --- | --- | --- | --- | --- | --- | --- | --- | --- | --- | --- | --- | --- | --- | --- | --- |
| CCCCCC(=O)OC[C@H]1O[C@@H]2[C@@H](Oc3nc(=N)ccn32)[C@@H]1OC(=O)CCCCC.Cl | inactive | Toxic | inactive | 100 | 6.57 | 61 | 6.00 | Toxic | 26 | Toxic | 86 | inactive | inactive | 0.11 | inactive | – | – | – |
| CCCCCCCCCCCC(=O)OC[C@H]1O[C@@H]2[C@@H](Oc3nc(=N)ccn32)[C@@H]1OC(=O)CCCCCCCCCCC.Cl | inactive | Toxic | inactive | 18 | 6.15 | – | 5.46 | – | > 195 | Toxic | 23 | – | inactive | 0.48 | inactive | > 310 | – | Activity (L1210 [11]): Active |
| C/C=C/C=C/C(=O)OC[C@H]1O[C@@H]2[C@@H](Oc3nc(=N)ccn32)[C@@H]1OC(=O)/C=C/C=C/C.Cl | inactive | – | inactive | – | 5.24 | 100 | < 5.00 | Toxic | 1 | – | – | inactive | inactive | 0.1 | inactive | – | Non-toxic | – |
| CCCCCCCC/C=C\CCCCCCCCCCCC(=O)OC[C@H]1O[C@@H]2[C@@H](Oc3nc(=N)ccn32)[C@@H]1OC(=O)CCCCCCCCCCC/C=C\CCCCCCCC.Cl | inactive | – | inactive | – | < 4.52 | – | < 4.52 | – | > 202 | – | – | – | inactive | 4 | inactive | > 267 | – | ILS at 500 mg/kg (L1210 [14]): > 257%; ILS at 1000 mg/kg (L1210 [15]): > 257%; Activity (L1210 [16]): Active; Activity (Mus musculus [17]): Non-toxic; Activity (L1210 [18]): Active |
| C=CCCCCCCCCC(=O)OC[C@H]1O[C@@H]2[C@@H](Oc3nc(=N)ccn32)[C@@H]1OC(=O)CCCCCCCCC=C.Cl | inactive | – | inactive | – | 6.36 | 74 | 6.11 | Toxic | 24 | – | – | inactive | inactive | 0.1 | inactive | – | Non-toxic | – |

— ChEMBL document CHEMBL3272098, “Reactions of 2-acyloxyisobutyryl halides with nucleosides. 7. Synthesis and biological evaluation of some 2,2'-anhydro-1(3',5'-di-O-acyl-beta-D-arabinofuranosyl)cytosine hydrochlorides” (J Med Chem, 1976)
